Marks after values point to notes of the source that are not given here.
Columns and labels:
[1] = system: dermatitis induced by repeated application of oxazolone; test: Inhibitory effects on the increase of ear thickness in a mouse model of dermatitis induced by repeated application of oxazolone; type: in vivo, BALB/c mice; conditions: 28th day, dose 50 μg/site/time
Protocol: Six-week-old BALB/c mice (male, Charles River Japan, Inc.) were used for the experiment. […] The mice were placed in plastic cages (6 mice per cage) in a breeding room which was kept at a room temperature (19 to 25° C.) and a humidity of 30 to 70% and was illuminated for 12 hours a day (from 7:00 a.m. to 7:00 p.m.). The mice were allowed to freely access commercially available pellets and water.
The experiment was performed according to a method by Kitagaki et al. (J. Invest. Dermatol., […], 105: 749) with small modification.
As an antigen solution, Oxazolone (Sigma-Aldrich) was dissolved in acetone (Kanto Kagaku) to prepare 0.5 weight/volume % of oxazolone-acetone solution. Compound (I) was dissolved in the antigen solution at 5 weight/volume % to prepare a Compound (I)-dissolving antigen solution. BALB/c mice were each applied with 10 μL of the antigen solution to the ear for sensitization. […] On the 28th day when chronic dermatitis symptoms were observed, ear thickness was measured with a dial thickness gauge (Ozaki Seisakusho). The inhibition ratio (%) against the increase of ear thickness was calculated using the following: Inhibition ratio (%)=[{(value in solvent administration group)−(value in Compound (I) administration group)}/{(value in solvent administration group)−(value in non-administration group)}]×100

[2] = system: oxazolone-induced ear swelling; test: Inhibitory effects on oxazolone-induced ear swelling in mice; type: in vivo, BALB/c mice; conditions: dose 100 μg/site, epicutaneous
Protocol: Six-week-old BALB/c mice (male, Charles River Japan, Inc.) were used for the experiment. […] The mice were placed in plastic cages (6 mice per cage) in a breeding room which was kept at a room temperature (19 to 25° C.) and a humidity of 30 to 70% and was illuminated for 12 hours a day (from 7:00 a.m. to 7:00 p.m.). The mice were allowed to freely access commercially available pellets and water. As an antigen solution, Oxazolone (Sigma-Aldrich) was dissolved in acetone (Kanto Kagaku) to prepare 0.5 weight/volume % of oxazolone-acetone solution. Compound (I) was dissolved in the antigen solution at 5 weight/volume % to prepare a Compound (I)-dissolving antigen solution. BALB/c mice were each applied with 100 μL of the antigen solution to the shaved abdomen for sensitization. Mice were shaved on abdomen on the previous day of the sensitization. […] Ear thickness was measured with a dial thickness gauge (Ozaki Seisakusho) just before and 24 hours after the application for inducing .the reaction, and the difference in the thickness was used as an indication of ear swelling. The inhibition ratio (%) against ear swelling was calculated using the following: Inhibition ratio (%)=[{(value in solvent administration group)−(value in Compound (I) administration group)}/{(value in solvent administration group)−(value in non-administration group)}]×100

[3] = system: chronic dermatitis models; conditions: J. Pharmacol. Exp. Ther., 1998, 287, p. 705; cited from earlier work
[4] = system: delayed-type allergic reaction in the skin; conditions: animal model; Eur. J. Pharmacol., 2002, 446: 195; cited from earlier work

## COc1ccc(C(=O)Cc2c(Cl)cncc2Cl)c2c1OC1(CCCC1)O2 [Compound (I), 7-[2-(3,5-dichloro-4-pyridyl)-1-oxoethyl]-4-methoxy-spiro[1,3-benzodioxol-2,1′-cyclopentane]]
[1]; repeated application to the ear day 7 to 28, male BALB/c mice
  Auricle thickness: 67** ×0.01 mm
[1]; repeated application, relative to solvent and non-administration groups
  Inhibition Ratio against the increase of ear thickness: 41%
[2]; difference in ear thickness just before and 24 hours after induction, male BALB/c mice
  Auricular Edema: 16** ×0.01 mm
[2]; 24 hours after induction, relative to solvent and non-administration groups
  Inhibition Ratio against ear swelling: 64%

## COc1ccc([C@]2(C#N)CC[C@@H](C(=O)O)CC2)cc1OC1CCCC1 [SB207499]
[3]
  Therapeutic effects on chronic dermatitis models: exhibit therapeutic effects on chronic dermatitis models
[4]
  Effect on delayed-type allergic reaction in the skin: inhibit a delayed-type allergic reaction in the skin
